Key:
hepatitis B virus = experiment: In vivo efficacy study, HDJ/HBV mouse model (HBV DNA in plasma and liver by qPCR); design: species or system mice
Procedure: Objective: The efficacy of the compound against hepatitis B virus in mice was determined through the HDJ/HBV mouse model.
Preparation of compound: the solvent was 10% polyethylene glycol-15 hydroxystearate; a certain amount of the tested compound of formula (I) was dissolved in an aqueous solution containing 10% polyethylene glycol-15 hydroxystearate, and the mixture was vortexed and sonicated to prepare a homogeneous suspension, and the suspension was stored at 4° C. for later use.
High pressure injection of the HBV plasmid DNA solution via the tail vein of mice: the day of plasmid injection was day 0, the day after injection was day 1, and so on. On day 0, all animals were injected by tail vein with a saline solution containing 10 μg of plasmid DNA at a volume of […] of body weight, and the injection was completed within 5 seconds.
Administration: all mice were administered intragastrically twice a day (8/16 h interval) on day 1-6 and once on day 7. All mice were euthanized in the afternoon on day 7. The body weight of the mice, which was monitored every day, remained stable throughout the experiment.
Sample collection: blood was collected from the submandibular vein 4 h after the first administration in the morning on days 1, 3, and 5. All blood samples were collected in K2-EDTA anticoagulation tubes, and centrifuged for 10 min at 4° C., 7000 g to prepare about 40 μL of plasma. All mice were euthanized by CO2 four hours after administration in the morning on day 7. Blood was collected from the heart, and the plasma preparation method was the same as above. Two liver tissues were collected with 70-100 mg each, and quick-frozen by liquid nitrogen. After all samples were collected, they were stored in a refrigerator (−80° C.) for HBV DNA content detection.
Sample analysis: all plasma samples and liver samples were detected for HBV DNA by qPCR.

CYP1A2 = target: T1, CYP1A2 (Homo sapiens, UniProt P05177); experiment: Inhibition of human liver microsomal cytochrome P450 isoenzyme CYP1A2; format: in vitro ADME; details: human liver microsomes
T1 construct: from tissue; host or cells: human liver microsomes
T1 sequence (P05177 1-516): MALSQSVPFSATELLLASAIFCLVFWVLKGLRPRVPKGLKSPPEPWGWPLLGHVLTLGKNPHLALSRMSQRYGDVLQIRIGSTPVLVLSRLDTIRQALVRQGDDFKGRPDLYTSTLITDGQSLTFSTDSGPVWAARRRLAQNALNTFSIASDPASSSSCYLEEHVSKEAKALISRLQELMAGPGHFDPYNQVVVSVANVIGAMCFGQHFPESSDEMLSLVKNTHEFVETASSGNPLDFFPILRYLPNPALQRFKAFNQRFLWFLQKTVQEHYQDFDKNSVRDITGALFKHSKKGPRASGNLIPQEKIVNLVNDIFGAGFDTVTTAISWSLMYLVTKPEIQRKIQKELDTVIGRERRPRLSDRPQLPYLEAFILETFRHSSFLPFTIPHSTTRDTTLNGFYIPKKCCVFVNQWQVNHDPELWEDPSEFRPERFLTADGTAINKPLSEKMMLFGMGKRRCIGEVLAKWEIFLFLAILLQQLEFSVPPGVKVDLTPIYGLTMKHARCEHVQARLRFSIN
Procedure: Objective: The inhibitory effect of the test compound on the activity of human liver microsomal cytochrome P450 isoenzymes (CYP1A2, CYP2C9, CYP2C19, CYP2D6 and CYP3A4) was determined. […]

[1] = Pharmacokinetic study in Balb/c mice by oral administration and intravenous injection; format: in vivo; details: mouse, Balb/c female mice, plasma
Procedure: Pharmacokinetic Study of the Test Compound in Balb/c Mice by Oral Administration and Intravenous Injection: The test compound was mixed with a solution containing dimethyl sulfoxide (101), polyethylene glycol 400 (600%) and water (300), and the mixture was vortexed and sonicated to prepare a 0.2 mg/mL clear solution, which was filtered through a millipore filter for later use. Balb/c female mice aged 7 to 10 weeks were intravenously injected with the candidate compound solution at a dose of 1 mg/kg. The test compound was mixed with an aqueous solution containing 10% polyoxyethylene stearate, and the mixture was vortexed and sonicated to prepare a 0.3 mg/mL clear solution for later use. Balb/c female mice aged 7 to 10 weeks were orally administered with the candidate compound solution at a dose of 3 mg/kg. Whole-blood was collected and plasma was prepared. Drug concentration was analyzed by LC-MS/MS and pharmacokinetic parameters were calculated with Phoenix WinNonlin software.

[2] = 10 mg/kg intragastrically twice a day
[3] = 30 mg/kg intragastrically twice a day

## CC1(NC(=O)C(=O)c2c(Cl)c(C(=O)Nc3cc(F)c(F)c(F)c3)c3n2CCC3)CCC(CC(=O)O)CC1 (stereo not shown) [Compound of formula (I)]
Hepatitis B virus; [2]
  HBV-DNA reduction, Liver (day 7): 0.94 Δ Log10 copies/100 ng
  HBV-DNA reduction, Plasma (day 5): 2.0 Δ Log10 copies/μL
Hepatitis B virus; [3]
  HBV-DNA reduction, Liver (day 7): 2.36 Δ Log10 copies/100 ng
  HBV-DNA reduction, Plasma (day 5): 3.57 Δ Log10 copies/μL
CYP1A2
  IC50: > 50 µM
[1]; 3 mg/kg, PO 3 mpk, read-out: Area under the plasma concentration-time curve AUC
  AUC: 2.27 µM·h
[1]; 3 mg/kg, PO 3 mpk, read-out: Peak concentration Cmax
  Cmax: 1480 nM
[1]; 3 mg/kg, PO 3 mpk, read-out: Peak time Tmax
  Tmax: 0.5 h
[1]; 3 mg/kg, PO 3 mpk vs IV 1 mg/kg, read-out: Bioavailability (F %)
  bioavailability: 51%
[1]; IV 1 mg/kg, read-out: Apparent volume of distribution (Vdss)
  Vd: 3.1 L/kg
[1]; IV 1 mg/kg, read-out: Area under the plasma concentration-time curve AUC0-24 h
  AUC(0-t): 1.49 µM·h
[1]; IV 1 mg/kg, read-out: Clearance (CL)
  clearance: 20 mL/min/kg
[1]; IV 1 mg/kg, read-out: Half-life T1/2 (converted)
  half-life: 1.95 h
